US5972890A, “Synthetic peptides for arterial imaging” (New England Deaconess Hospital Corporation, priority 1995, dated 1999)
Ends that are not written are not given here.

tested on: anti-SP-4 antiserum; experiment: ELISA immunological cross-reactivity with anti-SP-4 antiserum; assay type: binding; settings: ELISA plates coated with peptide or LDL, rabbit polyclonal anti-SP-4 antiserum
Method: To produce anti-synthetic peptide antisera, purified synthetic peptide was dissolved in PBS, pH 7.4 at a concentration of 1 mg/ml. The peptide solution was mixed with an equal volume of complete Freund's adjuvant and vortexed thoroughly until a thick emulsion was produced. New Zealand White rabbits (Millbrook Farms, Amherst, Mass.) were injected with a total of 0.5 mg synthetic peptide administered subcutaneously in the four dorsal quadrants. The rabbits were given a boost (injected at the same sites) with 0.5 mg peptide emulsified in incomplete Freund's adjuvant 2-3 weeks later. Eight to ten days after the first boost, the animals were given a second, identical boost and were bled of 30 ml 8 to 10 days later.
To test for immunological cross-reactivity microtiter plates (Immulon II Dynatech Labs, Chantilly, Va.) were coated with the purified synthetic peptide or LDL by an overnight incubation at 4° C. with 100 ng peptide per well in 50 mM carbonate, pH 9.6, and blocked for nonspecific binding with an additional overnight incubation with phosphate-buffered saline, pH 7.4 (PBS), 1% bovine serum albumin (BSA). Control wells were coated with BSA alone. After washing twice with PBS, the wells were filled with serial dilutions (1:10 to 1:100,000 made in PBS, 3% BSA) of a rabbit polyclonal antibody generated against the synthetic peptide(s) and incubated for 45 minutes at room temperature. Following thorough washing (3× with PBS, 0.1% BSA), the wells were filled with a 1:2000 dilution of goat anti-rabbit IgG-horseradish peroxidase conjugate (Atlantic Antibodies, Scarborough, Me.). After a final wash, the wells were filled with 3,3'-5,5'-tetramethybenzidine (TMB) microwell peroxidase substrate (Kirkegaard and Perry Labs, Gaithersburg, Md.) and read at 650 nm every two minutes on an ELISA-5 automated plate reader (Physica, New York, N.Y.). Results (see, e.g., FIGS. 4 and 5) are expressed as the initial velocity of substrate conversion (change in OD650 /hr), which is determined by a linear regression of 15 data points per well. Each data point represents the average of three measured data points from the same plate, run at the same time.

Row | Substance | binding of anti-SP-4 antiserum to coated peptide or LDL
1 | YKLALEAARLLADAEGAK-NH2 [SP-6, H2 N-Tyr-Lys-Leu-Ala-Leu-Glu-Ala-Ala-Arg-Leu-Leu-Ala-Asp-Ala-Glu-Gly-Ala-Lys- CONH2] | bind
2 | Ac-YKLALEAARLLANAEGAK-NH2 [SP-8A, CH3 CONH-Tyr-Lys-Leu-Ala-Leu-Glu-Ala-Ala-Arg-Leu-Leu-Ala-Asn-Ala-Glu-Gly-Ala-Lys-CONH2] | bind
3 | YKLALEAARLLANAEGAK-NH2 [SP-8, H2 N-Tyr-Lys-Leu-Ala-Leu-Glu-Ala-Ala-Arg-Leu-Leu-Ala-Asn-Ala-Glu-Gly-Ala-Lys- CONH2] | bind
4 | Ac-YRALVDTLK-NH2 [SP-14A, CH3 CONH-Tyr-Arg-Ala-Leu-Val-Asp-Thr-Leu-Lys-CONH2] | bind
5 | Ac-YRALVDTLKFVTQAEGAK-NH2 [SP-4A, CH3 CONH-Tyr-Arg-Ala-Leu-Val-Asp-Thr-Leu-Lys-Phe-Val-Thr-Gln-Ala-Glu-Gly-Ala-Lys-CONH2] | bind
6 | Ac-YRALVDYLKFVTQL-NH2 [SP-12A, CH3 CONH-Tyr-Arg-Ala-Leu-Val-Asp-Tyr-Leu-Lys-Phe-Val-Thr-Gln-Leu-CONH2] | bind
7 | Ac-YKLALEAARLLADAEGAK-NH2 [SP-6A, CH3 CONH-Tyr-Lys-Leu-Ala-Leu-Glu-Ala-Ala-Arg-Leu-Leu-Ala-Asp-Ala-Glu-Gly-Ala-Lys-CONH2] | bind
8 | YRALVDTLKFVTQAEGAK-NH2 [SP-4, NH2 -Tyr-Arg-Ala-Leu-Val-Asp-Thr-Leu-Lys-Phe-Val-Thr-Gln-Ala-Glu-Gly-Ala-Lys-CONH2] | bind

tested on: not listed separately; experiment: Plasma decay of 125I-labelled synthetic peptide after ear vein injection; assay type: in vivo, rabbit; settings: at four hours
Method: Each labelled synthetic peptide preparation (containing, for example, 150 to 400 or more μCi of ^125 I-labelled peptide) in column elution buffer was injected into the marginal ear vein of the ballooned and healing New Zealand white rabbits or WHHL rabbits. Serial blood samples were obtained from the opposite ear during the ensuing 0-24 hours and were analyzed for radioactivity. The labelled peptide concentrations in the blood samples that were withdrawn over the first 10 minutes after injection were extrapolated to zero time to determine the time zero radioactivity in the calculation of average plasma radioactivity. […] Peptides SP15a, SP17, SP19a, SP21a, SP28, SP34a, and SP30 were cleared rapidly from the plasma with half-lives of about one minute or less; after one hour, the plasma levels were less than 10% of the injected dose and fell by an additional 1% over the next three hours. Peptides SP15a, SP17, SP21a, SP28, SP34a, and SP30 leveled off to a plasma level of 3-6%; peptide SP19a cleared more quickly and leveled off to a concentration of 0.3% (at four hours).

Row | Substance | plasma concentration at which peptide leveled off
9 | Ac-YRALVDTLKFVTEQAKGA-NH2 [SP-19a, CH3 CONH-Tyr-Arg-Ala-Leu-Val-Asp-Thr-Leu-Lys-Phe-Val-Thr-Glu-Gln-Ala-Lys-Gly-Ala-CONH2] | 0.3%

same assay, conditions: from one hour to four hours after injection

Row | Substance | additional fall of plasma level over the next three hours
10 | Ac-YAKFRETLEDTRDRMY-NH2 [SP-15a, CH3 CONH-Tyr-Ala-Lys-Phe-Arg-Glu-Thr-Leu-Glu-Asp-Thr-Arg-Asp-Arg-Met-Tyr-CONH2] | 1%
11 | YVPGVGVPGVGVPGVGVPGVG-NH2 [SP-30, H2 N-Tyr-Val-Pro-Gly-Val-Gly-Val-Pro-Gly-Val-Gly-Val-Pro-Gly-Val-Gly-Val-Pro- Gly-Val-Gly-CONH2] | 1%
12 | YAALDLNAVANKIADFEL-NH2 [SP-17, H2 N-Tyr-Ala-Ala-Leu-Asp-Leu-Asn-Ala-Val-Ala-Asn-Lys-Ile-Ala-Asp-Phe-Glu-Leu- CONH2] | 1%
13 | Ac-YRALVDTLKFVTEQAKGA-NH2 [SP-19a, CH3 CONH-Tyr-Arg-Ala-Leu-Val-Asp-Thr-Leu-Lys-Phe-Val-Thr-Glu-Gln-Ala-Lys-Gly-Ala-CONH2] | 1%
14 | YVGVAPGVGVAPGVGVAPG [SP-28, H2 N-Tyr-Val-Gly-Val-Ala-Pro-Gly-Val-Gly-Val-Ala-Pro-Gly-Val-Gly-Val-Ala-Pro- Gly-OH] | 1%
15 | Ac-YRALVDTEFKVKQEAGAK-NH2 [SP-21a, CH3 CONH-Tyr-Arg-Ala-Leu-Val-Asp-Thr-Glu-Phe-Lys-Val-Lys-Gln-Glu-Ala-Gly-Ala-Lys-CONH2] | 1%
16 | Ac-YVLDEFREKLNEELEALKQK-NH2 [SP-34a] | 1%
